The results in this text go back to patent publication US20090004145A1, “COMPOSITIONS AND METHODS INVOLVING GENE THERAPY AND PROTEASOME MODULATION” (priority 2006, published 2009).

Where a SMILES comes first, the peptide text is derived from it. The star is where a group is joined. Cbz = O=C(OCc1ccccc1)*

What all share (type): cell-based, human
Test [1] has as its system p53, pJNK, p38MAPK, p44/42MAPK in 2008 cells. The test is described as follows: Western blotting of endogenous ubiquitinated proteins. Particulars: 24 h. On the procedure:
FIG. 16. Expression of endogenous ubiquitinated proteins is increased in MG132-treated CDDP-sensitive tumor cells but not in CDDP-resistant tumor cells. CDDP-resistant (2008/C*13 R) and sensitive (2008) ovarian tumor cells were plated in six-well plates. At 24 h after plating cells were treated with PBS or MG132. At 24 h after treatment cells were harvested, lysates prepared and subjected to western blotting. Primary antibodies used were anti-human p53, anti-human pJNK, antihuman-p38MAPK and anti-human p44/42MAPK antibody. […] Beta-actin was used as internal loading control.
FIG. 19. SiRNA-mediated inhibition of Beta-5 subunit expression of the 20S proteasome in CDDP-sensitive tumor cells results in increased endogenous protein expression. CDDP-sensitive (2008) ovarian tumor cells were plated in six-well plates. At 24 h after plating cells were treated with PBS, control SiRNA, or beta-5 specific SiRNAs (100 nM). At 48 h after treatment cells were harvested, lysates prepared and subjected to western blotting. Primary antibodies used were anti-human beta-5 antibody, anti-human p53 antibody and anti-human pJNK antibody. […] Beta-actin was used as internal loading control.
Expression of Endogenous Ubiquitinated Proteins is Increased in MG132-Treated CDDP-Sensitive Tumor Cells but not in CDDP-Resistant Tumor Cells. […]

Test [2] concerns total ubiquitinated proteins in 2008 cells. The test is described as follows: Western blotting of total ubiquitinated proteins. Particulars: 24 h. Here is the method:
FIG. 9. CDDP-resistant tumor cells have more endogenous ubiquitinated proteins. CDDP-resistant (2008/C*13 R) and sensitive (2008) ovarian tumor cells were plated in six-well plates and were untreated or treated with MG132. Cells were harvested 24 h after treatment, total cell lysate prepared and subjected to western blotting. Membrane was probed with human anti-ubiquitinated antibody.
CDDP-Resistant Tumor Cells Have More Endogenous Ubiquitinated Proteins. CDDP-resistant (2008/C*13 R) and sensitive (2008) ovarian tumor cells were plated in six-well plates and were untreated or treated with MG132. Cells were harvested 24 h after treatment, total cell lysate prepared and subjected to western blotting. Membrane was probed with human anti-ubiquitinated antibody. […] (FIG. 9)
For orientation: Immunoblotting shows a protein as a band on a membrane.

Test [3] deals with proteasome activity in 2008/C*13 R cells. The test is described as follows: Proteasome activity assay (commercially available kit) on cell lysates. Particulars: 48 h.

Consider `CC(C)C[C@@H](C=O)NC(=O)[C@H](CC(C)C)NC(=O)[C@H](CC(C)C)NC(=O)OCc1ccccc1` [MG132] (Cbz-Leu-Leu-Leu-aldehyde), for which the “expression of p53, pJNK, p38MAPK, p44/42MAPK” value in test [1] is given as “increased expression”. Moreover, the “total ubiquitinated protein levels” value in test [2] is “greatly increased”. For the same compound, the “inhibition of proteasome activity” value in test [3] (FIG. 11A (Ad-mda7 experiment)) and in test [3] (FIG. 11B (Ad-p53 experiment)) was 20% in each case.
